Nine compounds from patent publication US20040242974A1, “Treatment of refractory depression with an opiate antagonist and an antidepressant” (priority 2001, published 2004) can be followed below.

One series has as its system depression. Put plainly: Clinical observation / patient report of response to medication (case reports). The format is in vivo, human. The settings on record: A person; for Response to antidepressants in the past: earlier episodes of unipolar depression, recurrent type. The protocol:
Both antidepressants were stopped and they were then administered desipramine (a tricyclic antidepressant) up to 150 mg./day for 4 weeks. […] Desipramine was discontinued and a person was started on a course of electric shock treatment (ECT) on an outpatient basis. They received a total number of 8 treatments, administered 2 times per week.
(§1) Mrs. […] Lithium carbonate 300 mg. b.i.d. was added to the Prozac for one week, and afterward Prozac was increased over the next 4 weeks to 60 mg./day. […] In succession, they were tried on amitriptyline up to 300 mg./day with monitoring of medication blood levels, and venlafaxine up to 375 mg./day.

For series [1], the system named is refractory depression characterized by dissociation. Put plainly: Beck Depression Inventory (BDI) questionnaire measuring depression in the treated patient. It is filed as in vivo, human. The text has this:
Although any known test for measuring depression may be used as an indicator or measure of depression, the Beck Depression Inventory (“BDI”) is a preferred test for the present invention. The Beck Depression Inventory is a questionnaire developed by Aaron T. Beck, M.D. in 1978 to measure the presence and severity of depression. This test provides an exemplary method of measuring depression over the course of treatment according to the present invention. This test can also be used for reassessing a patient during treatment. The reassessment may be used to determine choice and dosage of antidepressant. The second edition of the Beck Depression Inventory is a 21-item questionnaire with each item rated on a four-point Likert scale (0-3) with total scores ranging from 0 to 63. A higher score indicates a more severe level of depression. Generally, a total score below 10 indicates no depression; a score from 10-16 indicates mild depression; 17-29 indicates moderate depression; and 30-63 indicates severe depression. According to the present invention, a score of about 10 or above would indicate diagnosis and treatment according to the present invention, with the patient more preferably presenting a BDI score of about 17 or above. A BDI score of less than about 10 is clinically non-significant. Eleven items of the BDI specifically identify how a depressed person thinks and feels about himself or herself. […] In paraphrased form they are: feeling disappointment in oneself; critical of oneself; suicidal thoughts; sadness; discouraged about the future; feelings of being punished; guilty; feeling like a failure; feeling a lack of satisfaction; feeling old/unattractive/ugly; and loss of interest in people. See S. Ramirez, supra.

The test system is the same in series [2]. Description: Glover Numbing Scale (GNS) self-report questionnaire measuring numbness/dissociation in the treated patient. It is filed as in vivo, human. The text has this: The Glover Numbing Scale was constructed to measure symptoms associated with the numb responses, and provides an adequate measure for determining whether a patient is in a dissociated state. Both males and females with major depression evidenced a bimodal distribution of scores on the GNS with a distance of three standard deviations between their respective means. The GNS has identified a unique subgroup within the population of people diagnosed with major depression who manifest the unique phenomenological experience and associated symptoms of having no feelings. […] By evaluating a patient with the Glover Numbing Scale prior to administration of an opiate antagonist, and reassessing the patient after treatment, one of skill in the art can readily determine if the opiate antagonist is reversing or alleviating dissociation.
In one embodiment, the Glover Numbing Scale is a 35-item self-report questionnaire that systematically measures the frequency of experiences associated with “numbness,” an essential symptom of dissociation. Each item is rated on a seven-point scale by the patient, with scores corresponding to the following responses: 1, never; 2, very rarely; 3, rarely; 4, occasionally; 5, frequently, 6, very frequently; and 7, always. The highest possible score according to the Glover Numbing Scale is 245 (35 items by 7 points per item); a higher score indicates a more persistent degree of numbness and associated symptoms of dissociation. […] See S. Ramirez, supra at 194-95. According to the present invention, a Glover Numbing Scale score greater than about 100 should be considered consistent with the presence of dissociation. […] In another embodiment, a GNS score less than about 60 can be considered clinically non-significant.
That is, according to one embodiment of the present invention, a patient evaluated according to the Beck Depression Inventory to have a total BDI of about 10 or more, would be diagnosed as suffering from depression. According to the present invention, the depressed patient would then be evaluated according to the Glover Numbing Scale to assess the refractory nature of the patient's depression. If the patient scored about 100 or above, and positively to any of the eight salient items on the GNS, the patient is then affirmatively diagnosed as suffering from refractory depression characterized by dissociation according to one embodiment of the present invention. According to the present invention, the diagnosis may be made immediately after evaluating the patient according to the Glover Numbing Scale in conjunction with the Beck Depression Inventory in the context of an initial diagnostic assessment. The 35 items of the Glover Numbing Scale (GNS) describe the breadth of problems that can be associated with dissociation. Eight of the 35 items, however, uniquely discriminate dissociative experiences from symptoms of depression at a very high degree of probability. It is recommended that these eight items be scored separately at the time of the initial evaluation, and be used to monitor the patient's response to treatment at regular intervals until the patient is in full remission or has achieved the maximum beneficial response to medication.
At the time of remission the patient's responses to all of the other […] items on the GNS can be individually assessed by the clinician to ascertain if any residual symptoms are present which may require further attention. […]

Another series has as its system patient. Put plainly: Side effects reported by the patient during treatment. It is filed as in vivo, human. Particulars: A person; nalmefene 50 to 150 mg b.i.d. The protocol:
They were reassessed with the BDI and the GNS. One week later a person was able to identify their mood as sad and lonely. […] Their BDI was now scored at 20 and their GNS score fell to 70.
It was decided to maintain the patient on amitriptyline while introducing nalmefene 50 mg. b.i.d. Four days later the dose of nalmefene was doubled. A person was monitored for side effects and changes of mood, using the eight salient items of the GNS and the eleven salient items of the BDI as guides. Mrs. […] During each visit the dose was […] 50 mg. to a final dose of 200 mg./day. Mrs.

For series [3] the following is noted: A person; lithium carbonate 300 mg b.i.d. On the procedure:
as §1

[4] abbreviates: lithium carbonate 300 mg b.i.d. added to Prozac, Prozac increased to 60 mg/day over 4 weeks.
Setting [5] is: A person, SAM-e 400 mg in divided doses, 800 mg five days later, started after the nalmefene course, one week afterward.

“And” between values parts separate entries of the source, which are not always exact repeats. Equal entries are not always repeated.

With `CNCCC(Oc1ccc(C(F)(F)F)cc1)c1ccccc1` (stereo not drawn) [Prozac], the Clinical response entry in the series on depression (initial treatment with Prozac, otherwise unchanged) was “reducing irritability”; in the series with depression (setting [4]), “lack of response”.

In turn, `C[S+](CC[C@H](N)C(=O)[O-])C[C@H]1O[C@@H](n2cnc3c(N)ncnc32)[C@H](O)[C@@H]1O` (stereo partly drawn) [SAM-e] registered a BDI score in series [1] (setting [5]) of 6. This compound also had a GNS score in series [2] (setting [5]) of 40. The “Clinical response (mood and energy)” value in the series on depression (SAM-e 400 then 800 mg, started after the nalmefene course, one week afterward) is “marked improvement in mood and energy level”.

As to `CNCCCN1c2ccccc2CCc2ccccc21` [desipramine], the Clinical response result in the series with depression (desipramine up to 150 mg/day for 4 weeks, remained essentially depressed) is “some decrease of crying spells”. Further, in the series on depression, the “Response to antidepressants in the past” value was “good responses”.

`Fc1ccc([C@@H]2CCNC[C@H]2COc2ccc3c(c2)OCO3)cc1` [Paxil]: the Clinical response result in the series on depression (Paxil up to 60 mg/day, unsuccessfully administered) is “mild to moderate calming effect”. For the same compound, the “Response to antidepressants in the past” value with depression is given as “good responses”.

With `CC(NC(C)(C)C)C(=O)c1cccc(Cl)c1` (stereo not drawn) [Bupropion], the Clinical response entry with depression (Bupropion (sustain released) up to 300 mg/day added to paxil, other than some improvement in level of energy) is listed as “little benefit”.

In the case of `COc1ccc(C(CN(C)C)C2(O)CCCCC2)cc1` (stereo not drawn) [venlafaxine], the Clinical response entry with depression (venlafaxine up to 375 mg/day, calming effect with some reduction of sadness and emptiness) is “improved their level of energy”.

`CN(C)CCC=C1c2ccccc2CCc2ccccc21` [amitriptyline]: in the series on depression (amitriptyline maintained while nalmefene introduced (50 mg b.i.d., doubled after four days)), the “Clinical response (antidepressant effect)” value is listed as “began to feel the antidepressant effect for the first time”. For the same compound, the Clinical response entry in the series with depression (amitriptyline up to 300 mg/day, calming effect with some reduction of sadness and emptiness) is recorded as “improved their level of energy”.

As for `C=C1CC[C@@]2(O)[C@H]3Cc4ccc(O)c5c4[C@@]2(CCN3CC2CC2)[C@H]1O5` [nalmefene], the BDI score in series [1] (A person (Example 1), nalmefene 50 mg b.i.d. 3 days, 100 mg b.i.d. 4 days, then 150 mg b.i.d., one week later, score before treatment 23) was found to be 20; in series [1] (A person (Example 2), one week after nalmefene 200 mg b.i.d. reached, maintained on amitriptyline (final 200 mg/day), score before 24), 5. In addition, the “Side effects of drowsiness and tiredness” value in the series with patient was “mild and transient”. The GNS score is on record as 70 in series [2] (A person (Example 1), nalmefene 50 mg b.i.d. 3 days, 100 mg b.i.d. 4 days, then 150 mg b.i.d., one week later, score before treatment 142) and 38 in series [2] (A person (Example 2), one week after nalmefene 200 mg b.i.d. reached, maintained on amitriptyline (final 200 mg/day), score before 148). In addition, the “Salient items of the GNS” value in series [2] (A person, nalmefene 200 mg b.i.d. with amitriptyline) is “not to have been experienced”; in series [2] (A person, nalmefene up to 150 mg b.i.d., during the past week), “not have been experienced”. Further, the “Clinical response (feelings)” value with depression (nalmefene up to 150 mg b.i.d., one week later) was “no longer experienced any lack of feelings”. For the same compound, the “Clinical response (patient report)” value in the series with depression (one week after nalmefene 200 mg b.i.d. reached, with amitriptyline) was “felt their usual self once again”.

As to `O=C([O-])[O-].[Li+].[Li+]` [Lithium carbonate], the Serum lithium levels in series [3] is 0.6 and 0.7. The Clinical response entry with depression (setting [4]) was “lack of response”.
